From patent publication US20230220021A1, “CYCLIC PEPTIDE INHIBITORS OF PSD-95 AND USES THEREOF” (University of Copenhagen, priority 2020, published 2023)
Where a SMILES comes first, the peptide text is derived from it. [ ]: non-standard residue; d: D form.

Key:
PSD-95-PDZ2 [1] = target: T1, PSD-95-PDZ2 (Homo sapiens, UniProt P78352); experiment: Fluorescence polarization (FP) competition assay against cyclic nNOS TAMRA probe; format: binding; conditions: for Ki: FP competition, cyclic nNOS TAMRA probe, mean of triplicates, N.B. = not binding, read-out: Ki; for Relative Ki (Ki mut/Ki WT): FP inhibition constant normalized to WT value
T1 construct: 7xHis (N); made in house; host or cells: Escherichia coli B21 pLys (for the mutants, 'as previously described')
Procedure: Fluorescence polarization (FP). FP assays were performed in a 384-well plate format. Fluorescence polarization was measured using a Safire 2 plate reader. The instrument Z-factor was optimized for each assay. The G-factor was calibrated to an initial milli polarization value of 20. The wavelength for the cyclic nNOS β-hairpin TAMRA probe was: ex: 530 nm and em: 580 nm. Every measurement was performed in NaPI 50 mM, 50 mM NaCl and 1% BSA at pH 7.2, 25° C. […] The curves were done in triplicates. Then, the polarization was fitted into a one-site binding model using Prism software 8.0 (GraphPad), from which the Kd can be measured. […] The mili polarization (mP) values were plotted as a function of peptide concentration and fitted to a sigmoidal dose-response curve using Prism software 8.0 (GraphPad). The Ki values were calculated according to Nikolovska-Coleska Z. et al.^40-41

PSD-95-PDZ2 [2] = target: T2, PSD-95-PDZ2 (Homo sapiens, UniProt P78352, V178C); experiment: SPOT peptide array screening with TAMRA labelled PSD-95-PDZ2; format: binding; conditions: SPOT array, TAMRA labelled PSD-95-PDZ2-V178C, normalized to WT
T2 construct: screened with the TAMRA labelled PSD-95-PDZ2-V178C domain; 7xHis (N); made in house
Procedure: SPOT peptide array synthesis. To generate the cyclic nNOSβ-hairpin arrays, we used the Intavis MultiPep spotter (Intavis Bioanalytical instruments). The membranes employed in this assay were SynthoPlan APEG CE (standard amino-modified acid stable sellulose membrane with a PEG-spacer), 10×15 cm with a loading of 400 nmol cm^−2. Solutions of 0.3 M Fmoc-AA-OH and 0.3 M Oxyma Pure were prepared in N-methyl-2-pyrrolidone (NMP). The activator solution consisted of 0.3 M DIC and 0.3 M of 2,4,6-trimethylpyridine (Collidine) in NMP. The capping solution consisted of a solution of 1 M acetic anhydride and 0.05 M of 4-dimethylaminopyridine (DMAP) in NMP. The deprotection solution consisted of 20% piperidine in NMP. AA couplings were performed 1 h,4 times. Deprotection of the Fmoc groups was performed 15min,2 times. Membrane washing between couplings or deprotections was performed with NMP and ethanol. Elongation of peptides in cellulose membrane was started by coupling first the Fmoc-PEG(9)-OH (Iris Biotech) and the subsequent mixture of Fmoc-Gly-OH (25%) and Boc-Gly-OH (75%) to lower the total loading of the membrane. Afterwards, the resin was capped with the capping solution and extensively washed and soaked in bromophenol blue (BPB) as a quality control to reveal the SPOTS with a functional amino group. Then, we coupled the quasi-orthogonal group Fmoc-Glu-PP, and carried out the rest of the synthesis until peptide completion. The cellulose bound linear peptides were finally treated with a solution of 95% DCM, 3% TIPS and 2% TFA 3 times, 20 min. to remove the quasi-orthogonal group. Afterwards, the membrane was washed 5 times with DCM and neutralized with 5% DIPEA in DCM. The membrane was then washed 5 more times with DCM, 5 times with NMP and cyclized with 0.3M PyAOP and 0.3M of DIPEA in DMF for 3 h or overnight. Finally, the membrane was dried with DCM and the side-chain protecting groups were cleaved with the standard deprotection cocktail (95% TFA, 2.5% H2O and 2.5% TIPS) or with reagent K [TFA 82.5%, phenol 5%, H2O 5%, thioanisole 5% and 1,2-ethanedithiol (EDT) 2.5%] for 3 h.
SPOT membrane screening. Membranes were incubated with PBS pH 7.2+0.5% bovine serum albumin (BSA) for 1 h. After the incubation period, the membrane was dried and scanned with an Amershan Typhoon scanner, at 400V, Cy3 wavelength (532 nm). A TIF file of the screening and a file with the blank values were generated using the Image Quant software. Afterwards, a solution of 50 nM of TAMRA labelled PSD-95-PDZ2 domain was prepared in PBS pH 7.2+0.5% BSA and was added to the membrane. The membrane was left incubating in a Polymax 1040 rocking table for 1 h protected from the light. Passed the incubation time, the excess of labelled protein was removed by washing the membrane 3 times with PBS+0.5% BSA. Finally, the membrane fluorescence values were measured with the Amershan Typhoon scanner at 400V, Cy3 wavelength (532 nm). Using the Image Quant software, the TIF image of the screening and a file with the fluorescence values of the peptides with the TAMRA labelled PSD-95-PDZ2 were generated. The blank was then subtracted from the fluorescence values of the peptides screened against the TAMRA labelled PSD-95-PDZ2.
A deep mutational scan was performed on the WT scaffold, exchanging each AA to the remaining 19 L-AAs. Each array contained three copies of the individual peptides as technical replicates. Additionally, three controls were included in the design: the cyclic nNOS β-hairpin WT control (positive control), a linear nNOS peptide (cyclization control) and a cyclic nNOS β-hairpin with a F111V substitution (negative control previously tested in FP competition assays). For array screening, a mutation in PSD-95-PDZ2 residue V178 (PSD-95-PDZ2-V178C) was introduced, which was subsequently labelled with TAMRA maleimide. […]

Compound | Ki (PSD-95-PDZ2 [1]) | Relative Ki (Ki mut/Ki WT) (PSD-95-PDZ2 [1]) | Normalized SPOT fluorescence (Mut/WT) (PSD-95-PDZ2 [2])
CC[C@H](C)[C@@H]1NC(=O)[C@H]([C@@H](C)O)NC(=O)[C@H](CCCCN)NC(=O)[C@@H]2CCCN2C(=O)[C@H]([C@@H](C)O)NC(=O)CNC(=O)[C@H](CC(=O)O)NC(=O)CNC(=O)[C@H]([C@@H](C)O)NC(=O)[C@H](Cc2ccccc2)NC(=O)[C@H](CC(=O)O)NC(=O)[C@H]([C@@H](C)O)NC(=O)[C@H](CCC(=O)O)NC(=O)[C@H](CC(C)C)NC(=O)[C@H](Cc2c[nH]cn2)NC(=O)[C@H]([C@@H](C)O)NC(=O)[C@H](CCC(N)=O)NC(=O)CNC(=O)[C@H]2CCCN2C(=O)[C@H](CCC(N)=O)NC(=O)[C@H]([C@@H](C)O)NC(=O)[C@H](C(C)C)NC(=O)[C@H](CCCNC(=N)N)NC1=O [compound 54] (cyclo(THLETDFTGDGTPKTIRVTQ[dP]GQ)) | 1420 nM | 0.95 | 0.16
CC[C@H](C)[C@@H]1NC(=O)[C@H]([C@@H](C)O)NC(=O)[C@H](CCCCN)NC(=O)[C@@H]2CCCN2C(=O)[C@H]([C@@H](C)O)NC(=O)CNC(=O)[C@H](CC(=O)O)NC(=O)CNC(=O)[C@H]([C@@H](C)O)NC(=O)[C@H](Cc2ccccc2)NC(=O)[C@H]([C@@H](C)O)NC(=O)[C@H]([C@@H](C)O)NC(=O)[C@H](CCC(=O)O)NC(=O)[C@H](CC(C)C)NC(=O)[C@H](Cc2c[nH]cn2)NC(=O)[C@H](C)NC(=O)[C@H](CCC(N)=O)NC(=O)CNC(=O)[C@H]2CCCN2C(=O)[C@H](CCC(N)=O)NC(=O)[C@H]([C@@H](C)O)NC(=O)[C@H](C(C)C)NC(=O)[C@H](CCCNC(=N)N)NC1=O [compound 55] (cyclo(AHLETTFTGDGTPKTIRVTQ[dP]GQ)) | 1500 nM | 1.00 | 0.97
CC[C@H](C)[C@@H]1NC(=O)[C@H]([C@@H](C)O)NC(=O)[C@H](CCCCN)NC(=O)[C@@H]2CCCN2C(=O)[C@H]([C@@H](C)O)NC(=O)CNC(=O)[C@H](CC(=O)O)NC(=O)CNC(=O)[C@H]([C@@H](C)O)NC(=O)[C@H](Cc2ccccc2)NC(=O)[C@H]([C@@H](C)O)NC(=O)[C@H]([C@@H](C)O)NC(=O)[C@H](C)NC(=O)[C@H](CC(C)C)NC(=O)[C@H](Cc2c[nH]cn2)NC(=O)[C@H]([C@@H](C)O)NC(=O)[C@H](CCC(N)=O)NC(=O)CNC(=O)[C@H]2CCCN2C(=O)[C@H](CCC(N)=O)NC(=O)[C@H]([C@@H](C)O)NC(=O)[C@H](C(C)C)NC(=O)[C@H](CCCNC(=N)N)NC1=O [compound 58] (cyclo(THLATTFTGDGTPKTIRVTQ[dP]GQ)) | – | 14.11 | 0.15
CC[C@H](C)[C@@H]1NC(=O)[C@H]([C@@H](C)O)NC(=O)[C@H](CCCCN)NC(=O)[C@@H]2CCCN2C(=O)[C@H]([C@@H](C)O)NC(=O)CNC(=O)[C@H](CC(=O)O)NC(=O)CNC(=O)[C@H](C)NC(=O)[C@H](Cc2ccccc2)NC(=O)[C@H]([C@@H](C)O)NC(=O)[C@H]([C@@H](C)O)NC(=O)[C@H](CCC(=O)O)NC(=O)[C@H](CC(C)C)NC(=O)[C@H](Cc2c[nH]cn2)NC(=O)[C@H]([C@@H](C)O)NC(=O)[C@H](CCC(N)=O)NC(=O)CNC(=O)[C@H]2CCCN2C(=O)[C@H](CCC(N)=O)NC(=O)[C@H]([C@@H](C)O)NC(=O)[C@H](C(C)C)NC(=O)[C@H](CCCNC(=N)N)NC1=O [compound 62] (cyclo(THLETTFAGDGTPKTIRVTQ[dP]GQ)) | – | 1.18 | 0.97
CC[C@H](C)[C@@H]1NC(=O)[C@H]([C@@H](C)O)NC(=O)[C@H](CCCCN)NC(=O)[C@@H]2CCCN2C(=O)[C@H]([C@@H](C)O)NC(=O)CNC(=O)[C@H](CC(=O)O)NC(=O)[C@H](C)NC(=O)[C@H]([C@@H](C)O)NC(=O)[C@H](Cc2ccccc2)NC(=O)[C@H]([C@@H](C)O)NC(=O)[C@H]([C@@H](C)O)NC(=O)[C@H](CCC(=O)O)NC(=O)[C@H](CC(C)C)NC(=O)[C@H](Cc2c[nH]cn2)NC(=O)[C@H]([C@@H](C)O)NC(=O)[C@H](CCC(N)=O)NC(=O)CNC(=O)[C@H]2CCCN2C(=O)[C@H](CCC(N)=O)NC(=O)[C@H]([C@@H](C)O)NC(=O)[C@H](C(C)C)NC(=O)[C@H](CCCNC(=N)N)NC1=O [compound 63] (cyclo(THLETTFTADGTPKTIRVTQ[dP]GQ)) | – | 3.03 | 0.68

The remaining lines, values ahead:

Ki (PSD-95-PDZ2 [1]) | Relative Ki (Ki mut/Ki WT) (PSD-95-PDZ2 [1]) | Normalized SPOT fluorescence (Mut/WT) (PSD-95-PDZ2 [2]) | Compound
– | 1.37 | 0.38 | CC[C@H](C)[C@@H]1NC(=O)[C@H]([C@@H](C)O)NC(=O)[C@H](CCCCN)NC(=O)[C@@H]2CCCN2C(=O)[C@H]([C@@H](C)O)NC(=O)CNC(=O)[C@H](CC(=O)O)NC(=O)CNC(=O)[C@H]([C@@H](C)O)NC(=O)[C@H](Cc2ccccc2)NC(=O)[C@H]([C@@H](C)O)NC(=O)[C@H]([C@@H](C)O)NC(=O)[C@H](CCC(=O)O)NC(=O)[C@H](CC(C)C)NC(=O)[C@H](C)NC(=O)[C@H]([C@@H](C)O)NC(=O)[C@H](CCC(N)=O)NC(=O)CNC(=O)[C@H]2CCCN2C(=O)[C@H](CCC(N)=O)NC(=O)[C@H]([C@@H](C)O)NC(=O)[C@H](C(C)C)NC(=O)[C@H](CCCNC(=N)N)NC1=O [compound 56] (cyclo(TALETTFTGDGTPKTIRVTQ[dP]GQ))
– | 2.62 | 0.66 | CC[C@H](C)[C@@H]1NC(=O)[C@H]([C@@H](C)O)NC(=O)[C@H](CCCCN)NC(=O)[C@@H]2CCCN2C(=O)[C@H]([C@@H](C)O)NC(=O)CNC(=O)[C@H](CC(=O)O)NC(=O)CNC(=O)[C@H]([C@@H](C)O)NC(=O)[C@H](Cc2ccccc2)NC(=O)[C@H](C)NC(=O)[C@H]([C@@H](C)O)NC(=O)[C@H](CCC(=O)O)NC(=O)[C@H](CC(C)C)NC(=O)[C@H](Cc2c[nH]cn2)NC(=O)[C@H]([C@@H](C)O)NC(=O)[C@H](CCC(N)=O)NC(=O)CNC(=O)[C@H]2CCCN2C(=O)[C@H](CCC(N)=O)NC(=O)[C@H]([C@@H](C)O)NC(=O)[C@H](C(C)C)NC(=O)[C@H](CCCNC(=N)N)NC1=O [compound 60] (cyclo(THLETAFTGDGTPKTIRVTQ[dP]GQ))
– | 2.15 | 1.80 | CC[C@H](C)[C@@H]1NC(=O)[C@H]([C@@H](C)O)NC(=O)[C@H](CCCCN)NC(=O)[C@@H]2CCCN2C(=O)[C@H]([C@@H](C)O)NC(=O)CNC(=O)[C@H](C)NC(=O)CNC(=O)[C@H]([C@@H](C)O)NC(=O)[C@H](Cc2ccccc2)NC(=O)[C@H]([C@@H](C)O)NC(=O)[C@H]([C@@H](C)O)NC(=O)[C@H](CCC(=O)O)NC(=O)[C@H](CC(C)C)NC(=O)[C@H](Cc2c[nH]cn2)NC(=O)[C@H]([C@@H](C)O)NC(=O)[C@H](CCC(N)=O)NC(=O)CNC(=O)[C@H]2CCCN2C(=O)[C@H](CCC(N)=O)NC(=O)[C@H]([C@@H](C)O)NC(=O)[C@H](C(C)C)NC(=O)[C@H](CCCNC(=N)N)NC1=O [compound 64] (cyclo(THLETTFTGAGTPKTIRVTQ[dP]GQ))
